Experimental data: patent publication US6706747B2, “Conformationally rigid bicyclic and adamantane derivatives useful as α2-adrenergic blocking agents” (Allergan, Inc., priority 1994, dated 2004)

biological target: T1, HT-29(α2A) (Homo sapiens, UniProt P08913); test: Radioligand binding, [3H]rauwolscine, HT-29 cell membranes; settings: values marked *: HT-29 cells, 22° C., 30 minutes
T1 construct: HT-29 and chinese hamster ovary (CHO) cells expressing the human α2A (CHO—C10) receptor; endogenous in cells; host or cells: HT-29
T1 sequence (P08913 1-465): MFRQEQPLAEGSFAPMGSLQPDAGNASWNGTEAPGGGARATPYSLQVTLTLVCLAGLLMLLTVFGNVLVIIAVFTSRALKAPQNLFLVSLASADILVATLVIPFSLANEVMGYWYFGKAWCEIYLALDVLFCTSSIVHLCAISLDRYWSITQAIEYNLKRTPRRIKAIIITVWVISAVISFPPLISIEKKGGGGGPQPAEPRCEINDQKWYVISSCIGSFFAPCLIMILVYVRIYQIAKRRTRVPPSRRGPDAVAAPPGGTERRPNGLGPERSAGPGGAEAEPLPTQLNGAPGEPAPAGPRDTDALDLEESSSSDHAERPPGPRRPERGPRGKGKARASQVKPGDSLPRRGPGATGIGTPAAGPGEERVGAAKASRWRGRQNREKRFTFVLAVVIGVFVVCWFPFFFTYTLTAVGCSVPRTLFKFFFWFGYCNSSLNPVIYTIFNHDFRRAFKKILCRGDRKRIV
Experimental: Cell preparation: HT-29 and chinese hamster ovary (CHO) cells expressing the human α2A (CHO—C10) receptor and CHO cells (CHO—RNG) expressing the rat α2B adrenoceptor were grown to near confluency in Dulbecco's modified Eagle's medium supplemented with 10% fetal bovine serum using standard cell culture methods. Cells were harvested by scraping and placed into cold buffer of the following composition: 50 mM Tris-HCl, 5 mM EDTA, pH 7.4). Cells were then homogenized with a Polytron homogenizer for 2×10 secs at setting # 7, arid centrifuged for 20 minutes at 49,000×g. The pellet fraction was washed (resuspended in Tris-HCl, pH 8 buffer and centrifuged for 15-20 minutes at 49,000×g) 2 times and stored at −100° C. until binding assay.
Binding studies: The radioligands [^3H]rauwolscine (specific activity 80 Ci/mmol) and [^3H]prazosin (specific activity 76 Ci/mmol) were obtained from New England Nuclear, Boston, Mass. Frozen membrane pellet was resuspended in 25 mM glycine/glycine, pH 7.4 and incubated with radioligand under the following conditions: CHO—C10, CHO—RNG, HT-29-[^3H]rauwolscine, 22° C., 30 minutes; RKC-[^3H]rauwolscine, 0° C., 120 minutes; and, HCC-[^3H]prazosin, 22° C., 30 minutes in a final volume of 500 μl. At the end of the incubation period, the samples were filtered through glass fiber filters (Whatman GF/B) in a 96 well cell harvester and rapidly washed four times with 4 ml of ice-cold 50 mM, Tris-HCl buffer. The filters were then oven dried and transferred to scintillation vials containing 5 ml of Beckman's Ready Protein® scintillation cocktail for counting. Specific binding defined by 10 μM phentolamine for competition studies were as follows: 0.3 nM [^3H]rauwolscine—CHO—C10 99%; 0.4 nM[^3H]rauwolscine —CHO—RNG 99%; 0.7;nM [^3H]rauwolscine—HT-29 90%; 1 nm [^3]rauwolscine—RKC 92%, and 0.3 nM [^3H]prazosin—HCC 87%. Protein concentrations were determined with a protein assay kit from Bio Rad. Binding isotherms, equilibrium dissociation and affinity constants were analyzed and determined by the non-linear least squares curve fitting programs AccuFit Competition/Saturation by Beckman.
Binding studies: The radioligands [^3H]rauwolscine (specific activity 80 Ci/mmol), [^3H]prazosin (specific activity 76 Ci/mmol) and [^3H]brimonidine (UK-14,304; specific activity 63 Ci/mmol) were obtained from New England Nuclear, Boston, Mass. Frozen membrane pellet was resuspended either 50 mM tris, 2 mM EGTA, 1 mM MgCl2, pH7.5 (RbKC, RbICB-[^3H]brimonidine); 50 mM tris, 0.5 mM EDTA, 5 mM NaCl, pH 7.7 (RbICB-[^3H]rauwolscine); 25 mM glycine/glycine, pH 7.4 (RtKC, CHO—C10, CH—RNG, HT-29, HCC) or 50 mM tris, 0.1 mM MnCl2, pH7.7 (RtCC). Membrane protein homogenate (75-200 μg) was incubated with radioligand under the following conditions: RbKC and RbICB-[^3H]rauwolscine, 22° C., 45 minutes; RtCC and RbICB-[^3H]brimondine, 22° C., 90 minutes; CHO—C10, CHO—RNG and HT-29-[^3H]rauwolscine, 22° C., 30 minutes; HCC—[^3H]prazosin, 22° C., 30 minutes; and, in a final volume of 250 or 500 μl. At the end of the incubation period, the samples were filtered through glass fiber filters (Whatman GF/B) in a 24 or 96 well cell harvester and rapidly washed four times with 4 mls of iced-cold 50 mM Tris-HCl buffer. The filters were then oven dried and transferred to scintillation vials containing 10 mls of, Beckman's Ready Protein® scintillation cocktail for counting. […] Protein concentrations were determined with a protein assay kit from Bio Rad. […]

| SMILES | Ki |
| --- | --- |
| CC(C)C1C2CCC(C2)C1NC1=NCCO1 (centres unmarked) | 43 nM |
| CCCCC1C2CCC(C2)C1NC1=NCCS1 (centres unmarked) | 58 nM |
| CCCCC1C2CCC(C2)C1NC1=NCCO1 (centres unmarked) | 29 nM |

Next, values leading:

| Ki | SMILES |
| --- | --- |
| 150 nM | CCCCNC1=NCCO1 |
| 288 nM | C1CCC(C2C3CCC(C3)C2NC2=NCCN2)CC1 (centres unmarked) |
